Assay results from patent US10222370B2, “Screening assay for choice of prebiotic to prevent/treat gastrointestinal and systemic diseases” (Rush University Medical Center, priority 2014, dated 2019).

Legend:
Format in all cases: cell-based, human
[1] = test system: T84 monolayers co-cultured with CD3/28-activated PBMC; assay: T84/PBMC co-culture, barrier integrity by transepithelial electrical resistance (TER); details: apical exposure, 24 h and 48 h, vs medium control
Protocol: (§1) The T84 cells are grown in DMEM/F-12 (1:1) supplemented with GlutaMAX®, 10% fetal bovine serum and […] penicillin/streptomycin. (T84 cells (human colorectal carcinoma cell line, ATCC® CCL-248™, Manassas, Va., USA). T84 cells were seeded in 12-well transwell insert filters (Coming Inc., NY, USA) and cultured in T84 cell medium for 3-4 weeks till co-culture with PBMC. Transepithelial electrical resistance (TER) was measured during culture, which generally increases to >1500 Ω×cm^2 and becomes stable after 3-4 weeks of culture. When TER was ≥2000 Ω×cm^2, T84 monolayers 14 were co-cultured with 1.5×10^6 PBMC 16 in the basolateral chamber.
(§2) The PBMC 16 for use in the co-cultures are isolated from 20 mL fresh blood from healthy controls (n=6) and subjects with food allergy (n=8) (Table 1). The average age of healthy controls was 36 (range 24-54) vs. 51 (range 26-74) for food allergic subjects (P>0.05). PBMC were isolated by density gradient centrifugation using lymphocyte separation medium according to manufacturer's protocol (Cellgro, Mediatec, Inc., Manassas, Va., USA). PBMC were collected in RPMI1640 supplemented with L-glutamine (Gibco), 2.5% fetal bovine serum, 1% penicillin/streptomycin and 1% sodium pyruvate (Sigma, St. Louis, Mo., USA) (PBMC medium) at 1×10^6 cell/mL.
(§3) T84/PBMC co-cultures were maintained in PBMC medium. PBMC were stimulated using CD3 and CD28 antibodies (clone OKT3 and CD28.2, 0.2 μg/mL; eBioscience, San Diego, Calif., USA) and simultaneously IEC were stimulated apically with Pam3CSK4, LPS or type C CpG oligonucleotide M362 (Invivogen, San Diego, Calif., USA) as previously described. Cultures were maintained at 37° C./5% CO2 for indicated time points.
(§4) The barrier integrity of T84 monolayers was assessed by measuring the TER and paracellular permeability to 4 kDa FITC-dextran. In short, TER was measured using a dual electrode system designed for cell culture insert analysis (EVOM; World Precision Instruments, Sarasota, Fla.) prior to co-culture and at indicated time points during co-culture. Data is reported as percentage of the initial TER value measured before co-culture. For assessment of permeability, T84 monolayers were separated from PBMC and cultured in PBMC medium for 1 h. The monolayers were then apically exposed to 1 mg/mL 4 kDa FITC-dextran (Sigma) and basolateral supernatants were collected after 60 min. FITC-dextran was measured at excitation wavelength 485 nm and emission wavelength 520 nm. The 4 kDa FITC-dextran flux was expressed as pmol/(h×cm^2).
In some experiments, PBMC are stimulated using antibodies against CD3 and CD28 and T84 cell monolayers were simultaneously exposed to synthetic TLR ligands or fermentation product 12 (co-culture of stool samples without or with different prebiotics). SCFA content (acetate, propionate and butyrate) in the fermentation products (“Fermenta”) 12 was analyzed by HPLC. TER was measured at t=0 h, t=4 h, t=18 h and t=24 h to monitor changes in the barrier integrity of the T84 monolayers. Non-limiting example of prebiotics include commercially available inulin and fructose oligosaccharides (FOS) that promote production of Butyrate by intestinal bacteria, galactose oligosaccharides (GOS) that promote growth of bifidobacteria in the intestine or prebiotics like resistant starch, corn arbionoxylan that promotes propionate. Other prebiotics may also be used.

[2] = test system: T84 monolayers co-cultured with CD3/28-activated PBMC; assay: T84/PBMC co-culture, paracellular permeability to 4 kDa FITC-dextran; details: PBMC from healthy controls; 48 h co-culture; vs medium control
Protocol: as §1, §2
T84/PBMC co-cultures were maintained in PBMC medium. […]
as §4, with “For assessment of permeability, T84 monolayers were separated from PBMC and cultured in PBMC medium for 1 h. The monolayers were then apically exposed to 1 mg/mL 4 kDa FITC-dextran (Sigma) and basolateral supernatants were collected after 60 min.” left out

T84/PBMC co-cultures = assay: Cytokine production in T84/PBMC co-cultures with apical TLR ligands (ELISA); details: T84/PBMC, 24 h, mean ± SEM
Protocol: as §1, §2, §3
(§5) Cytokine levels were measured by ELISA. IL-6, IL-8, IL-10, IL-13, IFN-γ and TNF-α were measured using the Ready-Set-Go!® ELISA kit from eBioscience according to manufacturer's protocol (eBioscience, Inc., San Diego, Calif., USA).
(§6) To evaluate whether epithelial TLR ligation modulates cytokine production by the PBMC, basolateral supernatants were collected 24 h after co-culture. Exposure of CD3/28-activated PBMC in the absence of IEC to TLR ligands served as a control to evaluate the contribution of IEC in modulating the cytokine production by PBMC. First we evaluated the production of IFN-γ and IL-13 as a reflection of a Th1 and Th2 type effector response (Table 3). No significant changes in the production of IFN-γ or IL-13 were observed, though IFN-γ production by the PBMC from food allergic subjects tended to be lower in T84/PBMC co-cultures (P=0.093). […] This was not observed when PBMC were stimulated with CpG DNA in absence of T84 cells (FIG. 7B).

PBMC = assay: Cytokine production by CD3/28-activated PBMC in absence of T84 cells (ELISA); details: for IFN-γ / IL-6 / IL-8 / IL-10 / IL-13 / TNF-α: PBMC in absence of T84 cells, 24 h, mean ± SEM; for IL-10/IL-13 ratio: absence of T84 cells
Protocol: as §2, §3, §5, §6

[3] = PBMC from food allergic subjects

LPS
TER of T84 monolayers [1, 3]: did not affect
TER of T84 monolayers ([1]; PBMC from healthy controls): did not affect
permeability of T84 monolayers to 4 kDa FITC-dextran [2]: increased the permeability
IL-6 (T84/PBMC co-cultures; FA (food allergy) PBMC): 7410 ± 2112 pg/mL
IFN-γ (T84/PBMC co-cultures; FA PBMC): 4390 ± 1700 pg/mL
IL-8 (T84/PBMC co-cultures; FA PBMC): 17103 ± 4334 pg/mL
IL-10 (T84/PBMC co-cultures; FA PBMC): 777.6 ± 163.2 pg/mL
IL-13 (T84/PBMC co-cultures; FA PBMC): 33.8 ± 11.0 pg/mL
TNF-α (T84/PBMC co-cultures; FA PBMC): 2403 ± 516 pg/mL
IL-6 (T84/PBMC co-cultures; HC (healthy control) PBMC): 9040 ± 2424 pg/mL
IFN-γ (T84/PBMC co-cultures; HC PBMC): 10392 ± 2967 pg/mL
IL-8 (T84/PBMC co-cultures; HC PBMC): 23124 ± 5683 pg/mL
IL-10 (T84/PBMC co-cultures; HC PBMC): 632.7 ± 125.1 pg/mL
IL-13 (T84/PBMC co-cultures; HC PBMC): 31.3 ± 9.1 pg/mL
TNF-α (T84/PBMC co-cultures; HC PBMC): 2928 ± 712 pg/mL
IFN-γ (PBMC; FA): 2188 ± 908 pg/mL
IL-6 (PBMC; FA): 9909 ± 2073 pg/mL
IL-8 (PBMC; FA): 35682 ± 4770 pg/mL
IL-10 (PBMC; FA): 586 ± 159.4 pg/mL
IL-13 (PBMC; FA): 34.0 ± 10.7 pg/mL
TNF-α (PBMC; FA): 945.4 ± 294 pg/mL
IFN-γ (PBMC; HC): 6070 ± 2282 pg/mL
IL-6 (PBMC; HC): 12399 ± 2174 pg/mL
IL-8 (PBMC; HC): 43034 ± 2960 pg/mL
IL-10 (PBMC; HC): 545.4 ± 134.7 pg/mL
IL-13 (PBMC; HC): 28.3 ± 8.7 pg/mL
TNF-α (PBMC; HC): 2607 ± 1165 pg/mL
IL-10/IL-13 ratio (PBMC; [3]): increased
IL-10/IL-13 ratio (PBMC; PBMC from healthy controls): enhanced
